Data reported in patent US11117930B2, “Peptide inhibitors of transcription factor aggregation” (ADRX, INC., priority 2017, dated 2021).
Where two headings read alike, the source gives them in different places. Non-standard residues stand in square brackets, D forms with d. Residues, ends and D or L forms follow the SMILES beside them. No end group written: not given here.

Tests used:
Stability in human serum = type: in vitro ADME; conditions: CPP linked peptides, read-out: Stability in Human Serum (t1/2)
Detroit-562 = type: cell-based; conditions: 24 h
Procedure: (§1) To render the inhibitors cell permeable, the peptides are fused to either a nine-residue poly L-Arg tag or a nine-residue poly D-Arg tag, through one of several three-residue linkers, either L-RPI, D-RPI, or D-GGG. Cancer cell lines, e.g. OVCAR-3, and Detroit 562 are treated with the peptide conjugates for 24 hours by the following method. OVCAR3 and Detroit-562 cells are grown in ATCC recommended growth media. The peptides were made in a 4 mM stock. Cells are plated in 96-well flat bottom clear plates at 7000 cells/well. After 24 hours, compounds are serially diluted in one-third [starting at 33 μM] or one-half [starting at 30 μM] dilutions in PrEGM media (Lonza). Growth media was removed from the wells and compound in PrEGM was added to 100 ul final volume. 24 hours post-compound addition cell metabolism was measured by addition of 20 μl MTS solution (Promega, cell-titer 96 aqueous). Absorbance was read at 490 nm following a 2 hour incubation and data was processed in Prism Graphpad to generate EC50 values.

OVCAR3 = type: cell-based; conditions: 24 h
Procedure: as §1

[1] = Protein binding in human serum; type: in vitro ADME; conditions: CPP linked peptides

| Compound | half-life (Stability in human serum) | EC50 (Detroit-562) | EC50 (OVCAR3) | fraction unbound [1] | half-life (Stability in human serum; cells given in hr) |
| --- | --- | --- | --- | --- | --- |
| CC[C@H](C)[C@H](NC(=O)[C@@H]1CCCN1C(=O)[C@H](CCCNC(=N)N)NC(=O)[C@H](CCCNC(=N)N)NC(=O)[C@H](CCCNC(=N)N)NC(=O)[C@H](CCCNC(=N)N)NC(=O)[C@H](CCCNC(=N)N)NC(=O)[C@H](CCCNC(=N)N)NC(=O)[C@H](CCCNC(=N)N)NC(=O)[C@H](CCCNC(=N)N)NC(=O)[C@H](CCCNC(=N)N)NC(=O)[C@@H](N)CCCNC(=N)N)C(=O)N[C@H](CCCCN)C(=O)N[C@H](Cc1ccccc1)C(=O)N[C@H](CCCNC(=N)N)C(=O)N[C@H](Cc1ccccc1)C(=O)N[C@H](Cc1ccc(O)cc1)C(=O)N[C@H](Cc1c[nH]cn1)C(=O)N[C@H](CCCNC(=N)N)C(=O)O [RRRRRRRRRRPIkfrfyhr] (H-RRRRRRRRRRPI[dK][dF][dR][dF][dY][dH][dR]-OH; N-terminus and C-terminus assumed) | 4.42 h | 15 µM | 11 µM | 0.19 |  |
| CC[C@H](C)[C@H](NC(=O)[C@@H]1CCCN1C(=O)[C@H](CCCNC(=N)N)NC(=O)[C@H](CCCNC(=N)N)NC(=O)[C@H](CCCNC(=N)N)NC(=O)[C@H](CCCNC(=N)N)NC(=O)[C@H](CCCNC(=N)N)NC(=O)[C@H](CCCNC(=N)N)NC(=O)[C@H](CCCNC(=N)N)NC(=O)[C@H](CCCNC(=N)N)NC(=O)[C@H](CCCNC(=N)N)NC(=O)[C@@H](N)CCCNC(=N)N)C(=O)N[C@H](CCC(N)=O)C(=O)N[C@H](CCC(N)=O)C(=O)N[C@H](CCCNC(=N)N)C(=O)N[C@H](Cc1ccc(O)cc1)C(=O)N[C@H](Cc1ccc(O)cc1)C(=O)N[C@H](Cc1c[nH]c2ccccc12)C(=O)N[C@H](CCCNC(=N)N)C(=O)O [RRRRRRRRRRPIqqryywr] (H-RRRRRRRRRRPI[dQ][dQ][dR][dY][dY][dW][dR]-OH; N-terminus and C-terminus assumed) | 10 h | 12 µM | 22 µM | 0.18 |  |
| CC[C@H](C)[C@H](NC(=O)[C@@H]1CCCN1C(=O)[C@H](CCCNC(=N)N)NC(=O)[C@H](CCCNC(=N)N)NC(=O)[C@H](CCCNC(=N)N)NC(=O)[C@H](CCCNC(=N)N)NC(=O)[C@H](CCCNC(=N)N)NC(=O)[C@H](CCCNC(=N)N)NC(=O)[C@H](CCCNC(=N)N)NC(=O)[C@H](CCCNC(=N)N)NC(=O)[C@H](CCCNC(=N)N)NC(=O)[C@@H](N)CCCNC(=N)N)C(=O)N[C@H](CCCNC(=N)N)C(=O)N[C@H](Cc1ccccc1)C(=O)N[C@H](Cc1ccc(O)cc1)C(=O)N[C@H](Cc1ccc(O)cc1)C(=O)N[C@H](Cc1c[nH]cn1)C(=O)N[C@H](CCCNC(=N)N)C(=O)N[C@H](CCCNC(=N)N)C(=O)O [RRRRRRRRRRPIrfyyhrr] (H-RRRRRRRRRRPI[dR][dF][dY][dY][dH][dR][dR]-OH; N-terminus and C-terminus assumed) | 0.95 h | 9 µM | 16 µM | 0.09 |  |
| CC[C@H](C)[C@H](NC(=O)[C@@H]1CCCN1C(=O)[C@H](CCCNC(=N)N)NC(=O)[C@H](CCCNC(=N)N)NC(=O)[C@H](CCCNC(=N)N)NC(=O)[C@H](CCCNC(=N)N)NC(=O)[C@H](CCCNC(=N)N)NC(=O)[C@H](CCCNC(=N)N)NC(=O)[C@H](CCCNC(=N)N)NC(=O)[C@H](CCCNC(=N)N)NC(=O)[C@H](CCCNC(=N)N)NC(=O)[C@@H](N)CCCNC(=N)N)C(=O)N[C@H](Cc1ccc(O)cc1)C(=O)N[C@H](CCC(N)=O)C(=O)N[C@H](Cc1c[nH]c2ccccc12)C(=O)N[C@H](Cc1ccc(O)cc1)C(=O)N[C@H](CCCNC(=N)N)C(=O)N[C@H](Cc1c[nH]c2ccccc12)C(=O)N[C@H](CCC(N)=O)C(=O)O [RRRRRRRRRRPIyqwyrwq] (H-RRRRRRRRRRPI[dY][dQ][dW][dY][dR][dW][dQ]-OH; N-terminus and C-terminus assumed) | 0.833 h | 13 µM | 10 µM | 0.02 |  |
| N=C(N)NCCC[C@@H](N)C(=O)N[C@H](CCCNC(=N)N)C(=O)N[C@H](CCCNC(=N)N)C(=O)N[C@H](CCCNC(=N)N)C(=O)N[C@H](CCCNC(=N)N)C(=O)N[C@H](CCCNC(=N)N)C(=O)N[C@H](CCCNC(=N)N)C(=O)N[C@H](CCCNC(=N)N)C(=O)N[C@H](CCCNC(=N)N)C(=O)NCC(=O)NCC(=O)NCC(=O)N[C@H](Cc1ccc(O)cc1)C(=O)N[C@H](CCC(N)=O)C(=O)N[C@H](Cc1c[nH]c2ccccc12)C(=O)N[C@H](Cc1ccc(O)cc1)C(=O)N[C@H](CCCNC(=N)N)C(=O)N[C@H](Cc1c[nH]c2ccccc12)C(=O)N[C@H](CCC(N)=O)C(=O)O [rrrrrrrrrgggyqwyrwq] (H-[dR][dR][dR][dR][dR][dR][dR][dR][dR]GGG[dY][dQ][dW][dY][dR][dW][dQ]-OH; N-terminus and C-terminus assumed) |  | 8 µM | 6 µM | 0.11 | > 24 h |
| CC[C@@H](C)[C@@H](NC(=O)[C@H]1CCCN1C(=O)[C@@H](CCCNC(=N)N)NC(=O)[C@@H](CCCNC(=N)N)NC(=O)[C@@H](CCCNC(=N)N)NC(=O)[C@@H](CCCNC(=N)N)NC(=O)[C@@H](CCCNC(=N)N)NC(=O)[C@@H](CCCNC(=N)N)NC(=O)[C@@H](CCCNC(=N)N)NC(=O)[C@@H](CCCNC(=N)N)NC(=O)[C@@H](CCCNC(=N)N)NC(=O)[C@H](N)CCCNC(=N)N)C(=O)N[C@H](Cc1c[nH]cn1)C(=O)N[C@H](CC(C)C)C(=O)N[C@H](CCCNC(=N)N)C(=O)N[C@@H](C(=O)N[C@H](Cc1c[nH]c2ccccc12)C(=O)N[C@H](CCCNC(=N)N)C(=O)N[C@H](CC(N)=O)C(=O)O)[C@H](C)CC [rrrrrrrrrrpihlriwrn] (H-[dR][dR][dR][dR][dR][dR][dR][dR][dR][dR][dP][dI][dH][dL][dR][dI][dW][dR][dN]-OH; N-terminus and C-terminus assumed) |  | 4 µM | 4 µM | 0.05 | > 24 h |
| CC[C@@H](C)[C@@H](NC(=O)[C@H]1CCCN1C(=O)[C@@H](CCCNC(=N)N)NC(=O)[C@@H](CCCNC(=N)N)NC(=O)[C@@H](CCCNC(=N)N)NC(=O)[C@@H](CCCNC(=N)N)NC(=O)[C@@H](CCCNC(=N)N)NC(=O)[C@@H](CCCNC(=N)N)NC(=O)[C@@H](CCCNC(=N)N)NC(=O)[C@@H](CCCNC(=N)N)NC(=O)[C@@H](CCCNC(=N)N)NC(=O)[C@H](N)CCCNC(=N)N)C(=O)N[C@H](Cc1c[nH]cn1)C(=O)N[C@H](CCC(N)=O)C(=O)N[C@H](CCCNC(=N)N)C(=O)N[C@H](CCC(N)=O)C(=O)N[C@H](Cc1ccc(O)cc1)C(=O)N[C@H](CCC(N)=O)C(=O)N[C@H](CCCNC(=N)N)C(=O)O [rrrrrrrrrrpihqrqyqr] (H-[dR][dR][dR][dR][dR][dR][dR][dR][dR][dR][dP][dI][dH][dQ][dR][dQ][dY][dQ][dR]-OH; N-terminus and C-terminus assumed) |  | 35 µM | 27 µM | 0.88 | > 24 h |
| CC[C@@H](C)[C@@H](NC(=O)[C@H]1CCCN1C(=O)[C@@H](CCCNC(=N)N)NC(=O)[C@@H](CCCNC(=N)N)NC(=O)[C@@H](CCCNC(=N)N)NC(=O)[C@@H](CCCNC(=N)N)NC(=O)[C@@H](CCCNC(=N)N)NC(=O)[C@@H](CCCNC(=N)N)NC(=O)[C@@H](CCCNC(=N)N)NC(=O)[C@@H](CCCNC(=N)N)NC(=O)[C@@H](CCCNC(=N)N)NC(=O)[C@H](N)CCCNC(=N)N)C(=O)N[C@H](CCCCN)C(=O)N[C@H](Cc1ccccc1)C(=O)N[C@H](CCCNC(=N)N)C(=O)N[C@H](Cc1ccccc1)C(=O)N[C@H](Cc1ccc(O)cc1)C(=O)N[C@H](Cc1c[nH]cn1)C(=O)N[C@H](CCCNC(=N)N)C(=O)O [rrrrrrrrrrpikfrfyhr] (H-[dR][dR][dR][dR][dR][dR][dR][dR][dR][dR][dP][dI][dK][dF][dR][dF][dY][dH][dR]-OH) |  | 5 µM | 4 µM | 0.14 | > 24 h |
| CC[C@@H](C)[C@@H](NC(=O)[C@H]1CCCN1C(=O)[C@@H](CCCNC(=N)N)NC(=O)[C@@H](CCCNC(=N)N)NC(=O)[C@@H](CCCNC(=N)N)NC(=O)[C@@H](CCCNC(=N)N)NC(=O)[C@@H](CCCNC(=N)N)NC(=O)[C@@H](CCCNC(=N)N)NC(=O)[C@@H](CCCNC(=N)N)NC(=O)[C@@H](CCCNC(=N)N)NC(=O)[C@@H](CCCNC(=N)N)NC(=O)[C@H](N)CCCNC(=N)N)C(=O)N[C@H](CCCCN)C(=O)N[C@H](Cc1c[nH]c2ccccc12)C(=O)N[C@H](CCCNC(=N)N)C(=O)N[C@H](Cc1c[nH]c2ccccc12)C(=O)N[C@H](Cc1ccc(O)cc1)C(=O)N[C@H](CCCNC(=N)N)C(=O)N[C@H](CCCNC(=N)N)C(=O)O [rrrrrrrrrrpikwrwyrr] (H-[dR][dR][dR][dR][dR][dR][dR][dR][dR][dR][dP][dI][dK][dW][dR][dW][dY][dR][dR]-OH; N-terminus and C-terminus assumed) |  | 5 µM | 4 µM | 0.06 | > 24 h |
| PRRRRRRRRRRPIWTIKLWHP |  | 6 µM | 4 µM |  |  |
